The text below walks through data of ChEMBL document CHEMBL1201862, “PubChem BioAssay data set” (2004).

Structures are written as SMILES. Active and inactive are the calls of the source.

Common to all, as to type: functional
For assay [1], the target named is T1, Sentrin-specific protease 6 (Homo sapiens, UniProt Q9GZR1).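 Further: Luminescence-based dose-response confirmatory assay of SENP6 inhibition, following up an ultra-high-throughput screen.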
T1 sequence (Q9GZR1 whole entry): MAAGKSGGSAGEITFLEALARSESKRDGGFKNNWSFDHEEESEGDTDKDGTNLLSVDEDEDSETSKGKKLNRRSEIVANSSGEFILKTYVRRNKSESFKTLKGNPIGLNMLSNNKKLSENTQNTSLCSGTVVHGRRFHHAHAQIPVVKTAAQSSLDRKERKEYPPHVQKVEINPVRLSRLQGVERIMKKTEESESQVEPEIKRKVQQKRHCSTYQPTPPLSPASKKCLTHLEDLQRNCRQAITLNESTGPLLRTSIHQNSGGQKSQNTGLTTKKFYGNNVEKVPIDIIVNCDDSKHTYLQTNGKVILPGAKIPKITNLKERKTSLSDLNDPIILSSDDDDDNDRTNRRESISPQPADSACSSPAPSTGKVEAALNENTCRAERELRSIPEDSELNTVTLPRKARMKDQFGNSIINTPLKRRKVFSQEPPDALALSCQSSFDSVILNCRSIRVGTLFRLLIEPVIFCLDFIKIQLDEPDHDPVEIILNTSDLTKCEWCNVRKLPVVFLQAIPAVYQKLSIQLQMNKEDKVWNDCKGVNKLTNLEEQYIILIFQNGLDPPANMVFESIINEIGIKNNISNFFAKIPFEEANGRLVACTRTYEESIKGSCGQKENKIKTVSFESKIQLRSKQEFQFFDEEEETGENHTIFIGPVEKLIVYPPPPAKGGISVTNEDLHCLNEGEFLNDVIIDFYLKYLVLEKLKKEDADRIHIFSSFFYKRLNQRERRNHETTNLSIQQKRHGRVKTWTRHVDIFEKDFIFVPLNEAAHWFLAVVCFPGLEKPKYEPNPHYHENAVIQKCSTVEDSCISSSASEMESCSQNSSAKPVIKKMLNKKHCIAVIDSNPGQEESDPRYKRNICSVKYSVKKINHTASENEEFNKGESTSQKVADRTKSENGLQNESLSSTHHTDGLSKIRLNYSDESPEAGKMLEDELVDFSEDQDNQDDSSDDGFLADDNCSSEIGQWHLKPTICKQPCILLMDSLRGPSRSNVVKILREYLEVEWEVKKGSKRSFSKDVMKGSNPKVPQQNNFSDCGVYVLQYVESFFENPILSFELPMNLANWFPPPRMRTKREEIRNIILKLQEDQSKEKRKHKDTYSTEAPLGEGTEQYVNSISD

Assay [2] has as its target T2, Caspase-3 (Homo sapiens, UniProt P42574).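 Further: Dose-response selectivity test against caspase-3 for candidate inhibitors of sentrin-specific proteases (SENPs).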
T2 sequence (P42574 whole entry): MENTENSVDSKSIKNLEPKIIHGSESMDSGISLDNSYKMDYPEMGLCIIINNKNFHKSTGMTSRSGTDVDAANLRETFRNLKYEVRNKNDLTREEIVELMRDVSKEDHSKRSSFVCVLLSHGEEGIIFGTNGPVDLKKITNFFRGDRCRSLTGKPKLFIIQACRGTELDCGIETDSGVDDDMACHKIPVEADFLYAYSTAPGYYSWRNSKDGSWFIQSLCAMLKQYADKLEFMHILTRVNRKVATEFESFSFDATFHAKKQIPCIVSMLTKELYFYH

In assay [3] the target is T3, Orexin/Hypocretin receptor type 1 (Homo sapiens, UniProt O43613).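 Further: antagonism measured against Orexin-A challenge at about its EC80.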
T3 sequence (O43613 whole entry): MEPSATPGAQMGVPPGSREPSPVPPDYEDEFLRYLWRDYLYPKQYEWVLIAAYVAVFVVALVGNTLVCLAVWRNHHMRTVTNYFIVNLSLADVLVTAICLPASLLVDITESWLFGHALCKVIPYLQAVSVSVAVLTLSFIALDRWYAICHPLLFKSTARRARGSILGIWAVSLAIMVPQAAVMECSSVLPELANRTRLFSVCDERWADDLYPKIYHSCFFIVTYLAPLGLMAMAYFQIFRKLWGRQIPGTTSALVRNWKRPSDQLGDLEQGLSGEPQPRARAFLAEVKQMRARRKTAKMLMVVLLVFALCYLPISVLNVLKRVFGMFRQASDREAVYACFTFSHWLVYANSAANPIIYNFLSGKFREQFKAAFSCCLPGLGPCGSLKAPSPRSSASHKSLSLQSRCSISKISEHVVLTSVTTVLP
Nature of the assay: Homogeneous Time Resolved Fluorescence (HTRF)-based cell-based high throughput dose response assay for antagonists of the orexin 1 receptor (OX1R; HCRTR1). [Related pubchem assays (depositor defined):AID434989, AID435008, AID463079, AID485270, AID492963, AID492964, AID492965, AID493232, AID504717, AID504718]. A general note: TR-FRET usually uses a lanthanide donor and a delayed reading to cut background.

The target in assay [4] is cAMP-dependent protein kinase catalytic subunit PRKX (Homo sapiens, UniProt P51817).
The target in assay [5] is Hepatocyte growth factor receptor (Homo sapiens, UniProt P08581).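 Further: kinase panel profiling across the kinome, with MET as the panel member.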
Assay [6] deals with Insulin-like growth factor 1 receptor (Homo sapiens, UniProt P08069). Nature of the assay: Navigating the Kinome. Panel member name: IGF1R.
Assay [7] addresses Activated CDC42 kinase 1 (Homo sapiens, UniProt Q07912). Kind of assay: Navigating the Kinome. Panel member name: ACK1.
Assay [8] concerns the target Cyclin-dependent kinase 9 (Homo sapiens, UniProt P50750).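 Further: value from the CDK9 entry of a kinome-spanning kinase panel.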
Assay [9] deals with Serine/threonine-protein kinase Chk1 (Homo sapiens, UniProt O14757).
Assay [10] concerns the target Macrophage-stimulating protein receptor (Homo sapiens, UniProt Q04912). Kind of assay: Navigating the Kinome. Panel member name: MST1R.
Assay [11] deals with Serine/threonine-protein kinase TAO1 (Homo sapiens, UniProt Q7L7X3).
Assay [12] has as its target Fibroblast growth factor receptor 1 (Homo sapiens, UniProt P11362).

Sequence of Hepatocyte growth factor receptor (P08581 whole entry): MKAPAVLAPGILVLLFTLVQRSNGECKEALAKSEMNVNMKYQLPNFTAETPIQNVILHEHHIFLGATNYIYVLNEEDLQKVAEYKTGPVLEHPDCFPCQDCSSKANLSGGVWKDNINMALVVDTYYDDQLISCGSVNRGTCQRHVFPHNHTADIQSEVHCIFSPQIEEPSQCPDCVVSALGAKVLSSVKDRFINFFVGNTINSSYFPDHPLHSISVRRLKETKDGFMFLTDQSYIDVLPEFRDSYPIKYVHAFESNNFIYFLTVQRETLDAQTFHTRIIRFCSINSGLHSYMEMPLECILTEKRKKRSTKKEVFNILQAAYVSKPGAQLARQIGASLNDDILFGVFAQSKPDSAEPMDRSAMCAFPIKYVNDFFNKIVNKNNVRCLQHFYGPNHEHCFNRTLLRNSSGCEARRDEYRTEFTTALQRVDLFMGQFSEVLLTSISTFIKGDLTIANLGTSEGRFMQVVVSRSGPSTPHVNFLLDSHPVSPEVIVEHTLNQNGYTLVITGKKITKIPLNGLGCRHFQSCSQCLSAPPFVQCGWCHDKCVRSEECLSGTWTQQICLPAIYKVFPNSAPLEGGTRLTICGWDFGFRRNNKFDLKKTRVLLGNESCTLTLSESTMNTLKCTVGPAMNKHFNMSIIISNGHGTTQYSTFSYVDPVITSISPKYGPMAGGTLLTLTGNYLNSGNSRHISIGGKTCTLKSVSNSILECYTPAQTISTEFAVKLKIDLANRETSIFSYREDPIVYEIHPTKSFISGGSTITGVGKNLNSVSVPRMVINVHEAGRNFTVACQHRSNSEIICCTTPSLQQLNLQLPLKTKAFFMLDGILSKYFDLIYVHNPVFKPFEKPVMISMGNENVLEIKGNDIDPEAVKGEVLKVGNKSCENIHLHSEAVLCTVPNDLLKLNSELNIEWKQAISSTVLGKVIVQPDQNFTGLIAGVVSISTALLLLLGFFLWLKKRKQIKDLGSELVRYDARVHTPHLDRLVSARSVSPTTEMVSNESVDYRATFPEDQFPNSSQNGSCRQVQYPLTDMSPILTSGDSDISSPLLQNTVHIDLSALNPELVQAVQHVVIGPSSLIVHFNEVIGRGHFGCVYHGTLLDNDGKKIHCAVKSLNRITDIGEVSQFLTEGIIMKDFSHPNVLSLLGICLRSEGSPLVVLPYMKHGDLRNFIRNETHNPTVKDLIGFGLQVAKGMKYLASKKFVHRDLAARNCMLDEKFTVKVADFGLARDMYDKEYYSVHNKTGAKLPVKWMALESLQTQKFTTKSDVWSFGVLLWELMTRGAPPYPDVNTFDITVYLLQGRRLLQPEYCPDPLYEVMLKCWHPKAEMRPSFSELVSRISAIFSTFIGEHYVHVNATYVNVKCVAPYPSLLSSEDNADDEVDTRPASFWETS
Sequence of cAMP-dependent protein kinase catalytic subunit PRKX (P51817 whole entry): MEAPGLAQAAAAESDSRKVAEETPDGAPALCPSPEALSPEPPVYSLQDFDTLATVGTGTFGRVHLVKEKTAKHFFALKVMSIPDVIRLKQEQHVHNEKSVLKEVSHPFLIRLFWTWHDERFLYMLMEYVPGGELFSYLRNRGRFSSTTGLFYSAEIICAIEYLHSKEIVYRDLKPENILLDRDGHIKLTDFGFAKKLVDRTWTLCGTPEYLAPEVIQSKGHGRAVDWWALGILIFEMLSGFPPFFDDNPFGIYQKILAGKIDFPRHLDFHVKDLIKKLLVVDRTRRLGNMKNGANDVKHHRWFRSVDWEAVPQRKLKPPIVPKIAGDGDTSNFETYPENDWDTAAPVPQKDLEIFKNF
Sequence of Serine/threonine-protein kinase TAO1 (Q7L7X3 whole entry): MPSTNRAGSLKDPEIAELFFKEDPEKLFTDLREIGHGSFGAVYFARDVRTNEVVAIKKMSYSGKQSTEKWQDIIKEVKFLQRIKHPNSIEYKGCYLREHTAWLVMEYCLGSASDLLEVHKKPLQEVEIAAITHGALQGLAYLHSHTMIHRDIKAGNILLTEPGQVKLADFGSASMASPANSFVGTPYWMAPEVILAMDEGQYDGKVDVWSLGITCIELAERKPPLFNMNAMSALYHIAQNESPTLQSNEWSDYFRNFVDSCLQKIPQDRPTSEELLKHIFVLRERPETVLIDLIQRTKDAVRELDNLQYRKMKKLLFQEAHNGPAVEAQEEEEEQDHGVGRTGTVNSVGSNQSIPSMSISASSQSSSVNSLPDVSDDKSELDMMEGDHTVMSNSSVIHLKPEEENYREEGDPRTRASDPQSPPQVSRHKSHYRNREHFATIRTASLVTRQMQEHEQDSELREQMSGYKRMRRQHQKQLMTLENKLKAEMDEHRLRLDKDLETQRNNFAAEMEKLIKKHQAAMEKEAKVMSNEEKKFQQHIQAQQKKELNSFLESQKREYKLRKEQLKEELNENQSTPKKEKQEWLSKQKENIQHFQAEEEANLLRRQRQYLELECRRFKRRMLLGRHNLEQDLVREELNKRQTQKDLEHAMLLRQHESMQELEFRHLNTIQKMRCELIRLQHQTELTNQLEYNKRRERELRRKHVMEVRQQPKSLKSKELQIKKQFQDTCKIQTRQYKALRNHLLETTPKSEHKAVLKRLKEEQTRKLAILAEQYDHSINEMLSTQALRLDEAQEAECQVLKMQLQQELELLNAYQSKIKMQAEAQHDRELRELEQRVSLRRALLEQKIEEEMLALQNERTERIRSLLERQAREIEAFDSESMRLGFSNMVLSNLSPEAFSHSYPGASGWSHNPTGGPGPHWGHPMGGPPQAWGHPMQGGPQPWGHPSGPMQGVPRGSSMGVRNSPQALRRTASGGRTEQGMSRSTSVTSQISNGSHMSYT
Sequence of Serine/threonine-protein kinase Chk1 (O14757 whole entry): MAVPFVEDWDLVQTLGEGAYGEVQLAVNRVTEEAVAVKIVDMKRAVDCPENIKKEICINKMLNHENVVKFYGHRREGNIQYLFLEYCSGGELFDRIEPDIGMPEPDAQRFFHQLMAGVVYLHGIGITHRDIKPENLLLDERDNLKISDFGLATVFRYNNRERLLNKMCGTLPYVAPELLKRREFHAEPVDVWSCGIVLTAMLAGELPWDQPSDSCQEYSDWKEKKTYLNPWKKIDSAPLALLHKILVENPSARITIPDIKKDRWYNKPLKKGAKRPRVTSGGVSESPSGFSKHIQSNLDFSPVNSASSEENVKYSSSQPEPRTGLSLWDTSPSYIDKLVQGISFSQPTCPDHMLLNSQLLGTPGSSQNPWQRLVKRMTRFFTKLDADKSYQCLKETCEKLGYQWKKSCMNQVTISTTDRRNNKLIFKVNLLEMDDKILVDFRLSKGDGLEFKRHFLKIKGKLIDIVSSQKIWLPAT
Sequence of Cyclin-dependent kinase 9 (P50750 whole entry): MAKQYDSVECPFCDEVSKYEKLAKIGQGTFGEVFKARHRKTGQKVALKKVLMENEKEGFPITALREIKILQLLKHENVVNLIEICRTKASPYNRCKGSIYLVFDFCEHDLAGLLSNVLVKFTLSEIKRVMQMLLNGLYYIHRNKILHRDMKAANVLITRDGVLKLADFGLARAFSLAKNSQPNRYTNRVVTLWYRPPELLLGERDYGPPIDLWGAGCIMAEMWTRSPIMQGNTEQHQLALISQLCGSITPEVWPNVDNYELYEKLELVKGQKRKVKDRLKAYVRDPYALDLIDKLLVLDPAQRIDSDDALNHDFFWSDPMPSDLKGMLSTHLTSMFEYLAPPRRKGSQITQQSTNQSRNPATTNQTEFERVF
Sequence of Insulin-like growth factor 1 receptor (P08069 31-736 limits assumed): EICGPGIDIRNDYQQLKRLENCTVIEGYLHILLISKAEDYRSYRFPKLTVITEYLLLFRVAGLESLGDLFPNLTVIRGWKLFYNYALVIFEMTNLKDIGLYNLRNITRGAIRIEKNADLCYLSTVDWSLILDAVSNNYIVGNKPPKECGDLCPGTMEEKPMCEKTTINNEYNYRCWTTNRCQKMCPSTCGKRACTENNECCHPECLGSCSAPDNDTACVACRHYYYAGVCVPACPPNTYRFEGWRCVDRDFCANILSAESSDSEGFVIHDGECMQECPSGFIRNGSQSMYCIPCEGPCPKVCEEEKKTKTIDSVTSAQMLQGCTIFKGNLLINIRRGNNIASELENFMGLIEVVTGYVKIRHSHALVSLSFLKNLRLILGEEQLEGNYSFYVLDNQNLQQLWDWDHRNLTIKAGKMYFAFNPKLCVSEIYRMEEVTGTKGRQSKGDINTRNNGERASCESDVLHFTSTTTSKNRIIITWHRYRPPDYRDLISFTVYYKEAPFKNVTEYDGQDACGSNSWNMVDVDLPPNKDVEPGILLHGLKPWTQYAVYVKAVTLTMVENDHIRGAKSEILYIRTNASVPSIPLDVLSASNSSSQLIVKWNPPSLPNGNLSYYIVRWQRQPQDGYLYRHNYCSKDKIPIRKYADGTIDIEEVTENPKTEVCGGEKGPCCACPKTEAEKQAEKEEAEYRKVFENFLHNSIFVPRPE
Sequence of Insulin-like growth factor 1 receptor (P08069 741-1367 limits assumed): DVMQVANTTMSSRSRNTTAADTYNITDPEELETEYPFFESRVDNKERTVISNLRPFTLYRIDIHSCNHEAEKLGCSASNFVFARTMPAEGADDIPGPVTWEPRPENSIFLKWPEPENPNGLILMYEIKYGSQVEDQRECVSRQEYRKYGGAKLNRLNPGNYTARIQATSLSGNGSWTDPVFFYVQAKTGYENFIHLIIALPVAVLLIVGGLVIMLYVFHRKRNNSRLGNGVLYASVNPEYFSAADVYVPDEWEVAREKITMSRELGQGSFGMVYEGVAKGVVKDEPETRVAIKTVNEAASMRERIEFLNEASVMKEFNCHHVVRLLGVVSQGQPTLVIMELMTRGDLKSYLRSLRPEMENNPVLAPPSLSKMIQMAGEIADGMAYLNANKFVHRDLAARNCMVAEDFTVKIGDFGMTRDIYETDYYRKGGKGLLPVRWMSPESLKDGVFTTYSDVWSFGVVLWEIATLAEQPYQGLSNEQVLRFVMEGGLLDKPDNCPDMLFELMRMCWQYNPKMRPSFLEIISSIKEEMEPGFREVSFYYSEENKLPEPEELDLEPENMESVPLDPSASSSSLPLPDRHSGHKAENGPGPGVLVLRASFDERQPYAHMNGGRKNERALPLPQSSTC

Broadly, the IC50 is the concentration that inhibits the measured activity by half. Take `Cc1ccnc2ccc(-c3nc4ccccc4o3)cc12`: the IC50 in assay [1] is 3650 nM (active); in [2], 5310 nM (active); in [3], 1100 nM (active).

As usually defined, the Ki is the dissociation constant of the complex between target and ligand, obtained from inhibition or displacement. Consider `O=C(NCCc1cccs1)N1CC=C(c2c[nH]c3ncccc23)CC1`, for which the Ki was 158 nM (active) in assay [4]; > 2510 nM (inactive) in [5]; > 2510 nM (inactive) in assay [6]; > 3980 nM (inactive) in [7]; 398 nM (active) in assay [8]; 2000 nM (active) in assay [9]. Besides, the Ki in assay [10] is 2510 nM (active); in assay [11] it was > 6310 nM (inactive); in [12], > 3980 nM (inactive).
